In patent US20230265151A1, “GIP/GLP1 CO-AGONIST COMPOUNDS” (priority 2020, published 2023):
Read-outs that look alike come from different tables or passages of the source.

Assays:
[1] = target: T1, hGIPR (Homo sapiens, UniProt P48546); experiment: Functional cAMP formation (HTRF) in HEK-293 clonal cells expressing hGIPR, 0.1% bovine casein, without or with 1.0% human serum albumin; assay type: cell-based; conditions: for EC50: cAMP
T1 construct: expressed in transfected cells
T1 sequence (P48546 22-466): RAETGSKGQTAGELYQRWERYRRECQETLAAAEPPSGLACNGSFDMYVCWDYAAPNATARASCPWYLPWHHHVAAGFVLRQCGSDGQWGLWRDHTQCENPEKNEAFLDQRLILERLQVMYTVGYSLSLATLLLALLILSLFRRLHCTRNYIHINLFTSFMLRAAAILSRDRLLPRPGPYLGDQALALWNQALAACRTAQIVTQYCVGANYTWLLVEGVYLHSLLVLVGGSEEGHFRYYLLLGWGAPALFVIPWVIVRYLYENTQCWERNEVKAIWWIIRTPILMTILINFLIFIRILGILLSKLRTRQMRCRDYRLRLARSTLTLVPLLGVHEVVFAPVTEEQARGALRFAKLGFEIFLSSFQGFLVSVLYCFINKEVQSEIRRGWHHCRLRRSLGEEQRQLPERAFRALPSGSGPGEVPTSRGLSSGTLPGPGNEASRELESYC
Outline: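 Cells were stimulated with peptide for 30 min at 37° C, then intracellular cAMP was measured by competitive HTRF (665/620 nm ratio) and converted to nM using a cAMP standard curve. Relative EC50 and Emax came from four-parameter logistic fits of percent maximal response against peptide concentration.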

[2] = target: T2, human GIP receptor (hGIPR) (Homo sapiens, UniProt P48546); experiment: [125I]-GIP binding, SPA with membranes of CHO cells expressing hGIPR
T2 construct: expressed in transfected cells; crude membranes
T2 sequence (P48546 22-466): T1 sequence (P48546 22-466)

[3] = HEK293, 0.1% bovine casein and 1.0% human serum albumin, 37° C., percent of maximal response to GIP(1-42)NH2, read-out: hGIPR Emax, % ± SEM
[4] = HEK293, percent of maximal response to GIP(1-42)NH2, 37° C., 0.1% bovine casein, arithmetic mean, read-out: hGIPR Emax, % ± SEM
[5] = human GIPR, geometric mean (SEM, n), read-out: Binding Affinity Ki, nM (SEM, n) hGIPR

| Structure (SMILES) | Emax [1, 3] | Emax [1, 4] | EC50 ([1]; incubated at 37° C., 0.1% bovine casein (no human serum albumin), geometric mean, read-out: hGIPR EC50, nM (SEM, n)) | Ki [2, 5] | Emax ([1]; HEK293, read-out: hGIPR Emax, % ± SEM, cAMP, 37° C., 0.1% bovine casein and 1.0% human serum albumin, percent of maximal response to GIP(1-42)NH2) | Emax ([1]; HEK293, read-out: hGIPR Emax, % ± SEM, cAMP, 37° C., 0.1% bovine casein, percent of maximal response to GIP(1-42)NH2, arithmetic mean) | EC50 ([1]; hGIPR EC50, nM (SEM, n), 37° C., 0.1% bovine casein (no human serum albumin), geometric mean) | EC50 ([1]; hGIPR EC50, nM (SEM, n), 37° C., 0.1% bovine casein and 1.0% human serum albumin, geometric mean (SEM, n)) | Ki [2] |
| --- | --- | --- | --- | --- | --- | --- | --- | --- | --- |
| CC[C@H](C)[C@H](NC(=O)[C@H](CC(C)C)NC(=O)[C@](C)(Cc1ccc(O)cc1)NC(=O)[C@@H](CCC(=O)O)NC(=O)[C@@H](NC(=O)[C@H](Cc1ccccc1)NC(=O)[C@H](CCC(=O)O)NC(=O)C(C)(C)NC(=O)[C@H](CCC(N)=O)NC(=O)[C@H](C)NC(=O)[C@H](CCCCNC(=O)COCCOCCNC(=O)COCCOCCNC(=O)CC[C@H](NC(=O)CCCCCCCCCCCCC(=O)O)C(=O)O)NC(=O)[C@H](CCCN)NC(=O)[C@H](CC(=O)O)NC(=O)[C@H](CC(C)C)NC(=O)[C@](C)(CC(C)C)NC(=O)[C@@H](NC(=O)[C@](C)(CO)NC(=O)[C@@H](NC(=O)[C@H](CC(=O)O)NC(=O)[C@H](CO)NC(=O)[C@@H](NC(=O)[C@](C)(Cc1ccccc1F)NC(=O)[C@@H](NC(=O)CNC(=O)[C@H](CCC(=O)O)NC(=O)C(C)(C)NC(=O)[C@@H](N)Cc1ccc(O)cc1)[C@@H](C)O)[C@@H](C)O)C(C)C)[C@@H](C)CC)[C@@H](C)CC)C(=O)N[C@@H](CCC(=O)O)C(=O)NCC(=O)NCC(=O)N[C@@H](CCCCNC(=O)COCCOCCNC(=O)COCCOCCNC(=O)CC[C@H](NC(=O)CCCCCCCCCCCCC(=O)O)C(=O)O)C(=O)N[C@@H](CO)C(=O)N[C@@H](CO)C(=O)NCC(=O)N[C@@H](C)C(=O)N1CCC[C@H]1C(=O)N1CCC[C@H]1C(=O)N1CCC[C@H]1C(=O)N[C@@H](CO)C(N)=O [Example 212] | 81% | 100% | 0.0385 nM | 0.161 nM |  |  |  |  |  |
| CC[C@H](C)[C@H](NC(=O)[C@H](CC(C)C)NC(=O)[C@](C)(Cc1ccc(O)cc1)NC(=O)[C@H](CCCCNC(=O)CC[C@H](NC(=O)COCCOCCNC(=O)COCCOCCNC(=O)CC[C@H](NC(=O)CCCCCCCCCOc1ccc(C(=O)O)cc1)C(=O)O)C(=O)O)NC(=O)[C@@H](NC(=O)[C@H](Cc1ccccc1)NC(=O)[C@H](CCCN)NC(=O)C(C)(C)NC(=O)[C@H](CCC(N)=O)NC(=O)[C@H](C)NC(=O)[C@H](CCC(N)=O)NC(=O)[C@H](CCCN)NC(=O)[C@H](CC(=O)O)NC(=O)[C@H](CC(C)C)NC(=O)[C@](C)(CC(C)C)NC(=O)[C@@H](NC(=O)C(C)(C)NC(=O)[C@H](Cc1ccncc1)NC(=O)[C@H](CC(=O)O)NC(=O)[C@H](CO)NC(=O)[C@@H](NC(=O)[C@](C)(Cc1ccccc1F)NC(=O)[C@@H](NC(=O)CNC(=O)[C@H](CCC(=O)O)NC(=O)C(C)(C)NC(=O)[C@@H](N)Cc1ccc(O)cc1)[C@@H](C)O)[C@@H](C)O)[C@@H](C)CC)[C@@H](C)CC)C(=O)N[C@@H](CCCCNC(=O)CC[C@H](NC(=O)COCCOCCNC(=O)COCCOCCNC(=O)CC[C@H](NC(=O)CCCCCCCCCOc1ccc(C(=O)O)cc1)C(=O)O)C(=O)O)C(=O)NCC(=O)NCC(=O)N1CCC[C@H]1C(=O)N[C@@H](CO)C(=O)N[C@@H](CO)C(=O)NCC(=O)N[C@@H](C)C(=O)N1CCC[C@H]1C(=O)N1CCC[C@H]1C(=O)N1CCC[C@H]1C(=O)N[C@@H](CO)C(N)=O [Example 483] |  |  |  |  | 92.6% | 97.4% | 0.0138 nM | 0.297 nM | 0.0236 nM |
| CC[C@H](C)[C@H](NC(=O)[C@H](CC(C)C)NC(=O)[C@](C)(Cc1ccc(O)cc1)NC(=O)[C@@H](CCC(=O)O)NC(=O)[C@@H](NC(=O)[C@H](Cc1ccccc1)NC(=O)[C@H](CCC(=O)O)NC(=O)C(C)(C)NC(=O)[C@H](CCC(N)=O)NC(=O)[C@H](C)NC(=O)[C@H](CCCCNC(=O)COCCOCCNC(=O)COCCOCCNC(=O)CC[C@H](NC(=O)CCCCCCCCCCCCC(=O)O)C(=O)O)NC(=O)[C@H](CCCN)NC(=O)[C@H](CC(=O)O)NC(=O)[C@H](CC(C)C)NC(=O)[C@](C)(CC(C)C)NC(=O)[C@@H](NC(=O)C(C)(C)NC(=O)[C@@H](NC(=O)[C@H](CC(=O)O)NC(=O)[C@H](CO)NC(=O)[C@@H](NC(=O)[C@](C)(Cc1ccccc1F)NC(=O)[C@@H](NC(=O)CNC(=O)[C@H](CCC(=O)O)NC(=O)C(C)(C)NC(=O)[C@@H](N)Cc1ccc(O)cc1)[C@@H](C)O)[C@@H](C)O)C(C)C)[C@@H](C)CC)[C@@H](C)CC)C(=O)N[C@@H](CCC(=O)O)C(=O)NCC(=O)NCC(=O)N[C@@H](CCCCNC(=O)COCCOCCNC(=O)COCCOCCNC(=O)CC[C@H](NC(=O)CCCCCCCCCCCCC(=O)O)C(=O)O)C(=O)N[C@@H](CO)C(=O)N[C@@H](CO)C(=O)NCC(=O)N[C@@H](C)C(=O)N1CCC[C@H]1C(=O)N1CCC[C@H]1C(=O)N1CCC[C@H]1C(=O)N[C@@H](CO)C(N)=O [Example 91] | 91.9% | 92.8 ± 4.69% |  | 0.126 nM |  |  |  |  |  |
